# Laboratory results: ChEMBL document CHEMBL4308841, “Synthesis, in vitro antiproliferative activity, and kinase inhibitory effects of pyrazole-containing diarylureas and diarylamides” (Eur J Med Chem, 2018)
# Legend:
# RPMI-8226 [1] = assay: Growth inhibition of human RPMI8226 cells incubated for 48 hrs by sulforhodamine B assay; type: functional, cell-based; settings: RPMI-8226, 48 h
# SF-295 = assay: Growth inhibition of human SF295 cells assessed as cell growth at 0.01 uM incubated for 48 hrs by sulforhodamine B assay relative to control; type: functional; settings: SF-295, 48 h, read-out: Activity
# SR = assay: Growth inhibition of human SR cells incubated for 48 hrs by sulforhodamine B assay; type: functional, cell-based
# SN12C = assay: Growth inhibition of human SN12C cells assessed as cell growth at 0.01 uM incubated for 48 hrs by sulforhodamine B assay relative to control; type: functional; settings: read-out: Activity
# NCI-H23 = assay: Growth inhibition of human NCI-H23 cells assessed as cell growth at 0.01 uM incubated for 48 hrs by sulforhodamine B assay relative to control; type: functional; settings: NCI-H23, 48 h, read-out: Activity
# DU-145 = assay: Growth inhibition of human DU145 cells assessed as cell growth at 1 uM incubated for 48 hrs by sulforhodamine B assay relative to control; type: functional; settings: DU-145, 48 h, read-out: Activity
# NCI/ADR-RES = assay: Growth inhibition of human NCI/ADR-RES cells assessed as cell growth at 0.01 uM incubated for 48 hrs by sulforhodamine B assay relative to control; type: functional; settings: read-out: Activity
# OVCAR-5 = assay: Growth inhibition of human OVCAR5 cells assessed as cell growth at 0.1 uM incubated for 48 hrs by sulforhodamine B assay relative to control; type: functional; settings: OVCAR-5, 48 h, read-out: Activity
# RPMI-8226 [2] = assay: Growth inhibition of human RPMI8226 cells assessed as cell growth at 100 uM incubated for 48 hrs by sulforhodamine B assay relative to control; type: functional; settings: RPMI-8226, 48 h, read-out: Activity
# NCI-H522 [3] = assay: Growth inhibition of human NCI-H522 cells assessed as cell growth at 10 uM incubated for 48 hrs by sulforhodamine B assay relative to control; type: functional; settings: NCI-H522, 48 h, read-out: Activity
# NCI-H522 [4] = assay: Growth inhibition of human NCI-H522 cells incubated for 48 hrs by sulforhodamine B assay; type: functional, cell-based; settings: NCI-H522, 48 h
# SW-620 = assay: Growth inhibition of human SW620 cells assessed as cell growth at 0.1 uM incubated for 48 hrs by sulforhodamine B assay relative to control; type: functional; settings: SW-620, 48 h, read-out: Activity
# UACC-257 = assay: Growth inhibition of human UACC257 cells assessed as cell growth at 0.1 uM incubated for 48 hrs by sulforhodamine B assay relative to control; type: functional; settings: UACC-257, 48 h, read-out: Activity
# ACHN [5] = assay: Growth inhibition of human ACHN cells assessed as cell growth at 100 uM incubated for 48 hrs by sulforhodamine B assay relative to control; type: functional; settings: read-out: Activity
# ACHN [6] = assay: Growth inhibition of human ACHN cells incubated for 48 hrs by sulforhodamine B assay; type: functional, cell-based
# OVCAR-3 = assay: Growth inhibition of human OVCAR3 cells assessed as cell growth at 0.1 uM incubated for 48 hrs by sulforhodamine B assay relative to control; type: functional; settings: OVCAR-3, 48 h, read-out: Activity
# SK-MEL-5 = assay: Growth inhibition of human SK-MEL-5 cells incubated for 48 hrs by sulforhodamine B assay; type: functional, cell-based; settings: SK-MEL-5, 48 h
# SNB-75 [7] = assay: Growth inhibition of human SNB75 cells assessed as cell growth at 0.01 uM incubated for 48 hrs by sulforhodamine B assay relative to control; type: functional; settings: SNB-75, 48 h, read-out: Activity
# U-251 = assay: Growth inhibition of human U251 cells incubated for 48 hrs by sulforhodamine B assay; type: functional, cell-based; settings: U-251, 48 h
# LOX IMVI = assay: Growth inhibition of human LOXIMVI cells incubated for 48 hrs by sulforhodamine B assay; type: functional
# A549 = assay: Growth inhibition of human A549/ATCC cells assessed as cell growth at 0.01 uM incubated for 48 hrs by sulforhodamine B assay relative to control; type: functional; settings: A549, 48 h, read-out: Activity
# K562 = assay: Growth inhibition of human K562 cells assessed as cell growth at 0.01 uM incubated for 48 hrs by sulforhodamine B assay relative to control; type: functional; settings: K562, 48 h, read-out: Activity
# SK-MEL-2 = assay: Growth inhibition of human SK-MEL-2 cells assessed as cell growth at 0.1 uM incubated for 48 hrs by sulforhodamine B assay relative to control; type: functional; settings: SK-MEL-2, 48 h, read-out: Activity
# SK-OV-3 = assay: Growth inhibition of human SKOV3 cells assessed as cell growth at 0.01 uM incubated for 48 hrs by sulforhodamine B assay relative to control; type: functional; settings: SK-OV-3, 48 h, read-out: Activity
# SNB-19 = assay: Growth inhibition of human SNB19 cells assessed as cell growth at 1 uM incubated for 48 hrs by sulforhodamine B assay relative to control; type: functional; settings: SNB-19, 48 h, read-out: Activity
# MDA-MB-435 = assay: Growth inhibition of human MDA-MB-435 cells assessed as cell growth at 1 uM incubated for 48 hrs by sulforhodamine B assay relative to control; type: functional; settings: MDA-MB-435, 48 h, read-out: Activity
# IGROV-1 = assay: Growth inhibition of human IGROV1 cells assessed as cell growth at 0.1 uM incubated for 48 hrs by sulforhodamine B assay relative to control; type: functional; settings: IGROV-1, 48 h, read-out: Activity
# SNB-75 [8] = assay: Growth inhibition of human SNB75 cells assessed as cell growth at 100 uM incubated for 48 hrs by sulforhodamine B assay relative to control; type: functional; settings: SNB-75, 48 h, read-out: Activity
# [9] = read-out: LC50 (the source's name)
# [10] = read-out: pLC50 (the source's name) (converted)
compound,measurement,setting,value
COc1cc(Cl)cc(-c2nn(-c3cccc(NC(=O)Nc4cccc(C(F)(F)F)c4)c3)cc2-c2ccncc2)c1,IC50,RPMI-8226 [1],0.43 µM
same,GI50,RPMI-8226 [1]; read-out: GI50,0.43 µM
same,CC50,RPMI-8226 [1]; [9],> 100 µM
same,TGI,RPMI-8226 [1]; read-out: TGI,23 µM
same,GI50,RPMI-8226 [1]; read-out: pGI50 (converted),0.427 µM
same,CC50,RPMI-8226 [1]; [10],> 100 µM
same,TGI,RPMI-8226 [1]; read-out: pTGI (converted),2.29 µM
same,growth at 0.01 µM,SF-295,94%
same,GI50,SR; read-out: GI50,1.14 µM
same,CC50,SR; [9],> 100 µM
same,TGI,SR; read-out: TGI,43.9 µM
same,GI50,SR; read-out: pGI50 (converted),1.15 µM
same,CC50,SR; [10],> 100 µM
same,TGI,SR; read-out: pTGI (converted),4.37 µM
same,growth at 0.01 µM,SN12C,101%
same,growth at 0.01 µM,NCI-H23,97%
same,growth at 1 µM,DU-145,73%
same,growth at 0.01 µM,NCI/ADR-RES,100%
same,growth at 0.1 µM,OVCAR-5,54%
same,growth at 100 µM,RPMI-8226 [2],-43%
same,growth at 10 µM,NCI-H522 [3],-18.6%
same,GI50,NCI-H522 [4]; read-out: GI50,0.445 µM
same,CC50,NCI-H522 [4]; [9],10 µM
same,TGI,NCI-H522 [4]; read-out: TGI,25.1 µM
same,CC50,NCI-H522 [4]; [10],10.2 µM
same,growth at 0.1 µM,SW-620,100%
same,growth at 0.1 µM,UACC-257,94%
same,growth at 100 µM,ACHN [5],-9%
same,GI50,ACHN [6]; read-out: GI50,1.72 µM
same,CC50,ACHN [6]; [9],> 100 µM
same,TGI,ACHN [6]; read-out: TGI,15.2 µM
same,GI50,ACHN [6]; read-out: pGI50 (converted),1.7 µM
same,CC50,ACHN [6]; [10],> 100 µM
same,TGI,ACHN [6]; read-out: pTGI (converted),16.2 µM
same,growth at 0.1 µM,OVCAR-3,98%
same,GI50,SK-MEL-5; read-out: GI50,1.43 µM
same,CC50,SK-MEL-5; [9],54.5 µM
same,TGI,SK-MEL-5; read-out: TGI,25.4 µM
same,GI50,SK-MEL-5; read-out: pGI50 (converted),1.48 µM
same,CC50,SK-MEL-5; [10],5.5 µM
same,TGI,SK-MEL-5; read-out: pTGI (converted),2.82 µM
same,growth at 0.01 µM,SNB-75 [7],83%
same,IC50,U-251,0.88 µM
same,GI50,U-251; read-out: GI50,0.679 µM
same,CC50,U-251; [9],89.4 µM
same,TGI,U-251; read-out: TGI,29.1 µM
same,GI50,U-251; read-out: pGI50 (converted),0.891 µM
same,CC50,U-251; [10],8.91 µM
same,TGI,U-251; read-out: pTGI (converted),2.88 µM
same,GI50,LOX IMVI; read-out: GI50,1.51 µM
same,CC50,LOX IMVI; [9],82.8 µM
same,TGI,LOX IMVI; read-out: TGI,70.4 µM
same,GI50,LOX IMVI; read-out: pGI50 (converted),1.82 µM
same,CC50,LOX IMVI; [10],83.2 µM
same,TGI,LOX IMVI; read-out: pTGI (converted),7.08 µM
same,growth at 0.01 µM,A549,100%
same,growth at 0.01 µM,K562,104%
same,growth at 0.1 µM,SK-MEL-2,55%
same,growth at 0.01 µM,SK-OV-3,92%
same,growth at 1 µM,SNB-19,77%
same,growth at 1 µM,MDA-MB-435,85%
same,growth at 0.1 µM,IGROV-1,96%
same,growth at 100 µM,SNB-75 [8],-17%
COc1cc(Cl)cc(-c2nn(-c3cccc(NC(=O)c4ccc(N5CCOCC5)c(C(F)(F)F)c4)c3)cc2-c2ccncc2)c1,IC50,RPMI-8226 [1],1.5 µM
same,GI50,RPMI-8226 [1]; read-out: GI50,1.5 µM
same,CC50,RPMI-8226 [1]; [9],> 100 µM
same,TGI,RPMI-8226 [1]; read-out: TGI,> 100 µM
same,GI50,RPMI-8226 [1]; read-out: pGI50 (converted),1.51 µM
same,CC50,RPMI-8226 [1]; [10],> 100 µM
same,TGI,RPMI-8226 [1]; read-out: pTGI (converted),> 100 µM
same,growth at 0.01 µM,SF-295,90%
same,GI50,SR; read-out: GI50,3.06 µM
same,CC50,SR; [9],> 100 µM
same,TGI,SR; read-out: TGI,> 100 µM
same,GI50,SR; read-out: pGI50 (converted),3.09 µM
same,CC50,SR; [10],> 100 µM
same,TGI,SR; read-out: pTGI (converted),> 100 µM
same,growth at 0.01 µM,SN12C,97%
same,growth at 0.01 µM,NCI-H23,92%
same,growth at 1 µM,DU-145,105%
same,growth at 0.01 µM,NCI/ADR-RES,96%
same,growth at 0.1 µM,OVCAR-5,78%
same,growth at 100 µM,RPMI-8226 [2],10%
same,growth at 10 µM,NCI-H522 [3],52.7%
same,GI50,NCI-H522 [4]; read-out: GI50,4.72 µM
same,CC50,NCI-H522 [4]; [9],> 100 µM
same,TGI,NCI-H522 [4]; read-out: TGI,> 100 µM
same,GI50,NCI-H522 [4]; read-out: pGI50 (converted),4.68 µM
same,CC50,NCI-H522 [4]; [10],> 100 µM
same,TGI,NCI-H522 [4]; read-out: pTGI (converted),> 100 µM
same,growth at 0.1 µM,SW-620,101%
same,growth at 0.1 µM,UACC-257,97%
same,growth at 100 µM,ACHN [5],28%
same,GI50,ACHN [6]; read-out: GI50,7.31 µM
same,CC50,ACHN [6]; [9],> 100 µM
same,TGI,ACHN [6]; read-out: TGI,> 100 µM
same,GI50,ACHN [6]; read-out: pGI50 (converted),7.24 µM
same,CC50,ACHN [6]; [10],> 100 µM
same,TGI,ACHN [6]; read-out: pTGI (converted),> 100 µM
same,growth at 0.1 µM,OVCAR-3,107%
same,GI50,SK-MEL-5; read-out: GI50,1.55 µM
same,CC50,SK-MEL-5; [9],> 100 µM
same,TGI,SK-MEL-5; read-out: TGI,> 100 µM
same,GI50,SK-MEL-5; read-out: pGI50 (converted),16.6 µM
same,CC50,SK-MEL-5; [10],> 100 µM
same,TGI,SK-MEL-5; read-out: pTGI (converted),> 100 µM
same,growth at 0.01 µM,SNB-75 [7],58%
same,IC50,U-251,5.03 µM
same,GI50,U-251; read-out: GI50,5.03 µM
same,CC50,U-251; [9],> 100 µM
same,TGI,U-251; read-out: TGI,> 100 µM
same,GI50,U-251; read-out: pGI50 (converted),5.01 µM
same,CC50,U-251; [10],> 100 µM
same,TGI,U-251; read-out: pTGI (converted),> 100 µM
same,GI50,LOX IMVI; read-out: GI50,1.58 µM
same,CC50,LOX IMVI; [9],> 100 µM
same,TGI,LOX IMVI; read-out: TGI,> 100 µM
same,GI50,LOX IMVI; read-out: pGI50 (converted),15.8 µM
same,CC50,LOX IMVI; [10],> 100 µM
same,TGI,LOX IMVI; read-out: pTGI (converted),> 100 µM
same,growth at 0.01 µM,A549,103%
same,growth at 0.01 µM,K562,100%
same,growth at 0.1 µM,SK-MEL-2,83%
same,growth at 0.01 µM,SK-OV-3,102%
same,growth at 1 µM,SNB-19,92%
same,growth at 1 µM,MDA-MB-435,92%
same,growth at 0.1 µM,IGROV-1,100%
same,growth at 100 µM,SNB-75 [8],18%
